The source made the active and inactive calls. The rule behind the calls is not given here. Peptide text beside a SMILES is read from it.

The values below come from ChEMBL document CHEMBL4265987, “Identification of inhibitors of the E. coli chaperone SurA using in silico and in vitro techniques” (Bioorg Med Chem Lett, 2018).

In test [1] the target is T1, Chaperone SurA (Escherichia coli (strain K12)) (UniProt P0ABZ6).
T1 sequence (whole entry): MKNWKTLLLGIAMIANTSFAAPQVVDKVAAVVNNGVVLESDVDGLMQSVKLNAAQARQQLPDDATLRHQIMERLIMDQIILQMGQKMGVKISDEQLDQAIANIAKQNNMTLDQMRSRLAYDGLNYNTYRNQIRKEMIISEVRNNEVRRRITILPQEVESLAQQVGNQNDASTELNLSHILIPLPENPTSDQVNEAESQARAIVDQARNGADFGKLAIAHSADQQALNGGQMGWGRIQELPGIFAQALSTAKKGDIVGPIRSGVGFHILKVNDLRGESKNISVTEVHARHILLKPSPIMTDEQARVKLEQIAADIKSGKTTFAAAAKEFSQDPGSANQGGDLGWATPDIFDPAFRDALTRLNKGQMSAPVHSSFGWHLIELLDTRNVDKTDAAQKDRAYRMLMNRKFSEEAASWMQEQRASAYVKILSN
Particulars: up to 3 µM.
Description: Inhibition of rhodamine-WEYIPNV binding to Escherichia coli SurA up to 3 uM by fluorescence anisotropy

The target of test [2] is T2, Chaperone SurA (Escherichia coli (strain K12), UniProt P0ABZ6).
T2 sequence (P0ABZ6 whole entry): T1 sequence (whole entry)
Nature of the test: Inhibition of rhodamine-WEYIPNV binding to Escherichia coli SurA by fluorescence anisotropy.

The nature of test [3]: Binding affinity to Rhodamine-WEYIPNV up to 3 uM by fluorescence anisotropy. For orientation: Fluorescence polarisation rises when a labelled molecule tumbles more slowly, as on binding a larger partner.
Test [4] deals with T2, Chaperone SurA. Nature of the test: Inhibition of rhodamine-WEYIPNV binding to Escherichia coli SurA in presence of 0.01% Triton-X-100 by fluorescence anisotropy.
In test [5] the target is T1, Chaperone SurA (Escherichia coli (strain K12)). Nature of the test: Inhibition of rhodamine-WEYIPNV binding to Escherichia coli SurA up to 2.5 uM by fluorescence anisotropy.
The target is the same in test [6]. Kind of test: Inhibition of rhodamine-WEYIPNV binding to Escherichia coli SurA up to 1.5 uM by fluorescence anisotropy.
Test [7] has the same target. Nature of the test: Inhibition of rhodamine-WEYIPNV binding to Escherichia coli SurA up to 2 uM by fluorescence anisotropy.
Test [8] shares this target. Nature of the test: Binding affinity to Escherichia coli SurA at 5 nM by fluorescence anisotropy.

As to H-KQAGNV-OH, the inhibition entry in test [1] was “inactive”.

With `N[C@@H](Cc1cnc[nH]1)C(=O)NCC(=O)NCC(=O)O` (H-His-Gly-Gly-OH), in test [1], the inhibition entry is “inactive”.

For `O=C(N[C@@H](Cc1c[nH]c2ccccc12)C(=O)O)OCC1c2ccccc2-c2ccccc21`, the IC50 – broadly, the point on the concentration scale where inhibition reaches its midpoint – at Chaperone SurA [2] is 23.3 µM. In addition, in test [3], the result was inactive.

Take `O=C(N[C@H](Cc1ccc2ccccc2n1)C(=O)O)OCC1c2ccccc2-c2ccccc21`: the IC50 at Chaperone SurA [2] was 57 µM; on Chaperone SurA [4], 37.4 µM. For the same compound, the outcome in test [3] was inactive.

As for `O=C1OC2(c3ccc(O)cc3Oc3cc(O)ccc32)c2ccc(N3C(=O)C=CC3=O)cc21`, the inhibition entry in test [5] was “inactive”.

At Chaperone SurA [2], `CC[C@H](C)[C@H](NC(=O)[C@H](Cc1ccc(O)cc1)NC(=O)[C@H](CCC(=O)O)NC(=O)[C@@H](N)Cc1c[nH]c2ccccc12)C(=O)N1CCC[C@H]1C(=O)N[C@@H](CC(N)=O)C(=O)N[C@H](C(=O)O)C(C)C` returned an IC50 of 2.66 µM.

At Chaperone SurA [2], `O=C(N[C@@H](Cc1ccccc1)C(=O)O)OCC1c2ccccc2-c2ccccc21` had an IC50 of 152 µM. The result in test [3] was inactive.

For the compound `C[C@H](NC(=O)OCC1c2ccccc2-c2ccccc21)C(=O)O`, the inhibition result in test [5] is “inactive”.

Turning to `O=C(N[C@@H](Cc1ccc(O)cc1)C(=O)O)OCC1c2ccccc2-c2ccccc21`, in test [5], the inhibition entry was “inactive”.

For `CC[C@H](C)[C@H](NC(=O)OCC1c2ccccc2-c2ccccc21)C(=O)O`, the inhibition result in test [5] is “inactive”.

Take `c1cc(C2=N[C@H]3c4ccccc4C[C@H]3O2)nc(C2=N[C@H]3c4ccccc4C[C@H]3O2)c1`: the inhibition entry in test [6] was “inactive”.

As for `CN1/C(=C\C=C2/CCC(/C=C/C3=[N+](C)c4ccccc4C3(C)C)=C2Cl)C(C)(C)c2ccccc21`, the inhibition entry in test [7] is “inactive”.

Consider `O=C(O)CCNC(=O)OCC1c2ccccc2-c2ccccc21`, for which, in test [5], the inhibition entry is “inactive”.

As to `O=C1OC2(c3ccc(O)cc3Oc3cc(O)ccc32)c2ccccc21`, the result in test [8] was Active.

For the compound `O=C(OCC1c2ccccc2-c2ccccc21)N1CCC[C@H]1C(=O)n1nnc2ccccc21`, in test [7], the inhibition result is “inactive”.
